Numbers after ± are expanded uncertainties.
Assay: xn = mol fraction of the nth substance listed
Conditions: Gas, Vibrating wire viscometry, x1 = 0.949

SMILES: C [methane] + CCC
- viscosity (199.92 K, 10367 kPa): 0.03814 ± 0.0019 mPa·s
- viscosity (200.6 K, 13841 kPa): 0.04236 ± 0.0016 mPa·s
- viscosity (202.32 K, 17279 kPa): 0.04452 ± 0.0017 mPa·s
- viscosity (203.24 K, 24182 kPa): 0.05008 ± 0.0018 mPa·s
- viscosity (203.36 K, 20735 kPa): 0.04739 ± 0.0019 mPa·s
- viscosity (203.36 K, 27628 kPa): 0.05294 ± 0.0018 mPa·s
- viscosity (203.43 K, 25922 kPa): 0.0511 ± 0.0019 mPa·s
- viscosity (204.19 K, 31114 kPa): 0.05549 ± 0.0018 mPa·s
- viscosity (255.51 K, 24135 kPa): 0.03085 ± 0.00042 mPa·s
- viscosity (255.57 K, 31095 kPa): 0.03577 ± 0.0006 mPa·s
- viscosity (255.59 K, 25902 kPa): 0.03221 ± 0.00046 mPa·s
- viscosity (255.59 K, 27592 kPa): 0.03348 ± 0.00048 mPa·s
- viscosity (255.62 K, 20701 kPa): 0.02791 ± 0.00042 mPa·s
- viscosity (311.08 K, 25869 kPa): 0.02348 ± 0.00038 mPa·s
- viscosity (311.11 K, 31037 kPa): 0.0265 ± 0.0004 mPa·s
- viscosity (311.12 K, 20946 kPa): 0.02061 ± 0.00062 mPa·s
- viscosity (311.13 K, 24419 kPa): 0.02279 ± 0.00062 mPa·s
- viscosity (311.13 K, 27584 kPa): 0.02453 ± 0.00046 mPa·s
- viscosity (366.88 K, 24192 kPa): 0.01997 ± 0.00032 mPa·s
- viscosity (366.89 K, 25926 kPa): 0.02064 ± 0.0003 mPa·s
- viscosity (366.89 K, 27645 kPa): 0.02138 ± 0.00032 mPa·s
- viscosity (366.89 K, 31144 kPa): 0.0226 ± 0.00054 mPa·s
- viscosity (423.62 K, 24191 kPa): 0.01944 ± 0.00034 mPa·s
- viscosity (423.63 K, 25937 kPa): 0.01988 ± 0.00028 mPa·s
- viscosity (423.63 K, 27640 kPa): 0.02032 ± 0.00034 mPa·s
- viscosity (423.63 K, 31097 kPa): 0.02136 ± 0.0003 mPa·s

Reference: the NIST ThermoML archive (doi:10.1021/je500857w)
